The nature of data set [1]: SDS-PAGE analysis of glutaraldehyde cross-linked samples (oligomer formation and storage stability). It counts as physicochemical. As to the method: The soluble Aβ oligomers were cross-linked with glutaraldehyde, incubated for 10 minutes at room temperature and then quenched with 1M glycine, 1M Tris-HCl pH 7.5. Cross-linked samples were then diluted to a final concentration of 0.02 μg/μL, in Tris-glycine SDS sample buffer. For analysis, 0.28 μg Aβ (nominal concentration) in either monomeric or oligomeric form was separated by electrophoresis at 125V for about 100 minutes using a 4% to 20% tris-glycine gel (Invitrogen, Carlsbad, Calif.). Gels were then silver stained to visualize the size distribution of the soluble Aβ oligomers. For glutaraldehyde concentration optimization, HFIP-dried Aβ42 or HFIP-dried Aβ40 was solubilized in DMSO (20 mg/mL, 4.4 mM), added to 50 mM phosphate, pH 9.0, to a final concentration of 1.8 mg/mL (400 μM) and incubated at 4° C. overnight, protected from light. […]
As set forth above in Examples 1-4, Aβ42 forms soluble Aβ oligomers in 50 mM phosphate, pH 9.0 buffer during storage at 2° C. to 8° C. However, the optimal concentration for formation, biological activity and storage stability of these oligomeric species during storage was not determined. […] These cross-linked species were not disrupted in the presence of SDS, and therefore, the appropriate size distribution could be determined by SDS-PAGE. […]

A further data set deals with PC-12 cells. The data set can be described thus: PC-12 MTT reduction assay. The class given is cell-based. The note with it: for MTT reduction: PC-12 cells. As to the method:
PC-12 cells were plated at 30,000 cells/well and allowed to grow overnight at 37° C./5% CO2. Soluble Aβ oligomers or vehicle were added to cells at concentrations of 1 μM and 5 μM. After a four hour incubation at 37° C./5% CO2, the MTT reduction assay was performed (Lambert et al., 2001, J. Neurochem. 79, 595-605). Briefly, MTT (10 μL, 5 mg/mL) was added to each well and allowed to incubate for four hours. A solubilization buffer (100 μL, 10% SDS in 0.01 N HCl) was added and the plate was incubated at 37° C./5% CO2 overnight. The assay was then quantified at 595 nm on a Tecan Spectrafluor Plus plate reader (Tecan Systems, San Jose, Calif.).
In this experiment, Aβ42 was prepared at concentrations of 1 mM, 850 μM, 650 μM, 450 μM, 250 μM and 100 μM in 50 mM phosphate pH 9.0 buffer as described in the Example 8. After 7 days of incubation at 4° C., samples were tested by the MTT assay to determine bioactivity.

Consider “Aβ40: HFIP-dried Aβ40 monomer peptide, solubilized in DMSO and incubated in 50 mM phosphate, pH 9.0 [reference compound]”, for which the oligomer formation entry in data set [1] (400 μM in 50 mM phosphate, pH 9.0, 24 hour incubation at 4° C.) was “primarily stays monomeric and does not form oligomers”.
Regarding Aβ peptide (1-42) [Aβ42], the MTT reduction result with PC-12 cells (stock concentrations 450 μM to 650 μM in 50 mM phosphate pH 9.0, 7 days at 4° C., test concentration 5 μM, 4 h incubation) is on record as “about 55%”; in the data set on PC-12 cells (stock concentrations below 450 μM and above 650 μM in 50 mM phosphate pH 9.0, 7 days at 4° C., tested at 1 μM and 5 μM), 80-105%. Also, the bioactivity after storage result in the data set with PC-12 cells (stock concentrations of 450 μM to 650 μM in 50 mM phosphate, pH 9.0 buffer, storage at 2-8° C.) is “remain bioactive for up to seven days”. Also, the “storage stability of oligomeric (150 kDa) species” value in data set [1] (stock concentration 450 μM in 50 mM phosphate, pH 9.0 buffer, 1, 4 and 7 days at 4° C., 0.5% glutaraldehyde cross-linking) is “can be stored for seven days at 4 °C”.

Source of the values: patent US20100240868A1, “Composition and Method for a Producing Stable Amyloid Beta Oligomers of High Molecular Weight” (priority 2005, published 2010).
